Measurements as given in ChEMBL document CHEMBL1146481, “Rediocides B-E, potent insecticides from Trigonostemon reidioides” (2004).

System: Ctenocephalides felis
Experiment: Insecticidal activity against Ctenocephalides felis by anti-flea artificial membrane feeding system
Assay type: functional

**Q.** With `C[C@H]1[C@@H]2CC[C@@H]1[C@@H](OC(=O)c1ccccc1)/C=C/C=C/C(=O)O[C@H]1[C@@H](C)C[C@@H]3[C@]1(O)[C@H](O)[C@@]1(CO)O[C@H]1[C@H]1[C@H]4OC5(c6ccccc6)O[C@@H]([C@@H](C)[C@@]13O5)[C@@]4(O)[C@](C)(O)C2` [REDIOCIDE C] as the compound, how does the LD90 read?
**A.** 0.5 ppm

**Q.** `CC(C)CC(=O)O[C@H]1/C=C/C=C/C(=O)O[C@H]2[C@@H](C)C[C@@H]3[C@]2(O)[C@H](O)[C@@]2(CO)O[C@H]2[C@H]2[C@H]4OC5(c6ccccc6)O[C@@H]([C@@H](C)[C@@]23O5)[C@@]4(O)[C@](C)(O)C[C@H]2CC[C@H]1[C@H]2C` [REDIOCIDE A] was tested. Which LD90 did it give?
**A.** 0.25 ppm

**Q.** `C[C@@H]1[C@@H]2OC3(c4ccccc4)O[C@@H]4[C@@H]5[C@@H]6O[C@]6(C)[C@@H](O)[C@@]6(O)[C@@H](C[C@H](C)[C@@H]6OC(=O)/C=C/[C@@H]6O[C@H]6[C@H](OC(=O)c6ccccc6)C6CCC(CC6)C[C@@](C)(O)[C@@]42O)[C@]51O3` [REDIOCIDE D] was tested. Which LD90 did it give?
**A.** 0.25 ppm

**Q.** With `CC(C)CC(=O)O[C@H]1/C=C/C=C/C(=O)O[C@H]2CC[C@@H]3[C@]2(O)[C@H](O)[C@@]2(CO)O[C@H]2[C@H]2[C@H]4OC5(c6ccccc6)O[C@@H]([C@@H](C)[C@@]23O5)[C@@]4(O)[C@](C)(O)C[C@H]2CC[C@H]1[C@H]2C` [REDIOCIDE E] as the compound, how does the LD90 read?
**A.** 0.5 ppm

**Q.** `CC(C)CC(=O)O[C@H]1/C=C/C=C/C(=O)O[C@H]2[C@@H](C)C[C@@H]3[C@]2(O)[C@H](O)[C@@]2(CO)O[C@H]2[C@H]2[C@H]4OC5(c6ccccc6)O[C@@H]([C@@H](C)[C@@]23O5)[C@@]4(O)[C@](C)(O)CC2CCC1CC2` [REDIOCIDE B] was tested. Which LD90 did it give?
**A.** 0.25 ppm
